Measured values reported in patent US20250195521A1 (Revolution Medicines, Inc., priority 2020, published 2025).
Where “and” joins values, the source holds several entries; their conditions need not be identical. Equal entries are not always repeated. Where two headings read alike, the source gives them in different places.

Columns and labels:
[1] = tested on: Capan-1 cells (K-Ras G12V); assay: CellTiter-Glo cell viability, Capan-1; type: cell-based, human; details: Homo sapiens, CAPAN-1, 120 h, read-out: Capan-1 Cell Viability IC50
Procedure: Note—The following protocol describes a procedure for monitoring cell viability of K-Ras mutant cancer cell lines in response to a compound of the invention. Other RAS isoforms may be employed, though the number of cells to be seeded will vary based on cell line used.
Test compounds (132.5 nl) were directly dispensed into the assay plates containing cells. […] On day 5, assay plates and their contents were equilibrated to room temperature for approximately 30 minutes. […] Luminescence was measured using the PerkinElmer Enspire. Data were normalized by the following: (Sample signal/Avg. DMSO)*100. The data were fit using a four-parameter logistic fit.

KRAS G12C = KRAS G12C (Homo sapiens (Human), UniProt P01116+P62937, G12C); assay: Ras-Raf disruption/FRET/MOA assay (BRAF RBD, Cyclophilin A); type: biochemical
Sequence of KRAS G12C (P01116-2 other isoform, or with tags, fused parts or gaps G12C): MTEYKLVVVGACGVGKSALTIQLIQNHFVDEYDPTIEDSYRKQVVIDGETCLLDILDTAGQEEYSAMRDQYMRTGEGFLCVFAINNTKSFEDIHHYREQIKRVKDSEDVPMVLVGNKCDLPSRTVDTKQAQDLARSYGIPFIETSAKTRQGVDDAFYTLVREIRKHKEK
Sequence of KRAS G12C (P62937 whole entry): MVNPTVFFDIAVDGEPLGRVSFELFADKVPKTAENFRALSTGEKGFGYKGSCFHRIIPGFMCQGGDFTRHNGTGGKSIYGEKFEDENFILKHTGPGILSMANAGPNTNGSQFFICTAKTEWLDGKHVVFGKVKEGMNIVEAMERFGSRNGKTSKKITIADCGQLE
Procedure: (§1) Compound is present in plate wells as a 10-point 3-fold dilution series starting at a final concentration of 30 μM. After incubation at 25° C. for 3 hours, a mixture of Anti-His Eu—W1024 and anti-GST allophycocyanin is then added to assay sample wells at final concentrations of 10 nM and 50 nM, respectively, and the reaction incubated for an additional 1.5 hours. […] Compounds that facilitate disruption of a Ras: RAF complex are identified as those eliciting a decrease in the TR-FRET ratio relative to DMSO control wells.
(§2) Disruption of B-Raf Ras-Binding Domain (BRAF^RBD) Interaction with K-Ras by Compounds of the Invention (Also Called a FRET Assay or an MOA Assay)
(§3) Note—The following protocol describes a procedure for monitoring disruption of K-Ras G12C (GMP-PNP) binding to BRAF^RBD by a compound of the invention. This protocol may also be executed substituting other Ras proteins or nucleotides.
(§4) The purpose of this biochemical assay was to measure the ability of test compounds to facilitate ternary complex formation between a nucleotide-loaded K-Ras isoform and Cyclophilin A; the resulting ternary complex disrupts binding to a BRAF^RBD construct, inhibiting K-Ras signaling through a RAF effector. Data is reported as IC50 values.
(§5) In assay buffer containing 25 mM HEPES pH 7.3, 0.002% Tween20, 0.1% BSA, 100 mM NaCl and 5 mM MgCl2, tagless Cyclophilin A, His6-K-Ras-GMPPNP, and GST-BRAF^RBD were combined in a 384-well assay plate at final concentrations of 25 μM, 12.5 nM and 50 nM, respectively. Compound was present in plate wells as a 10-point 3-fold dilution series starting at a final concentration of 30 μM. After incubation at 25° C. for 3 hours, a mixture of Anti-His Eu—W1024 and anti-GST allophycocyanin was then added to assay sample wells at final concentrations of 10 nM and 50 nM, respectively, and the reaction incubated for an additional 1.5 hours. […] Compounds that facilitate disruption of a K-Ras: RAF complex were identified as those eliciting a decrease in the TR-FRET ratio relative to DMSO control wells.

KRAS G12D = KRAS G12D (Homo sapiens (Human), UniProt P01116+P62937, G12D); assay: as above; type: biochemical
Sequence of KRAS G12D (P01116 other isoform, or with tags, fused parts or gaps G12D): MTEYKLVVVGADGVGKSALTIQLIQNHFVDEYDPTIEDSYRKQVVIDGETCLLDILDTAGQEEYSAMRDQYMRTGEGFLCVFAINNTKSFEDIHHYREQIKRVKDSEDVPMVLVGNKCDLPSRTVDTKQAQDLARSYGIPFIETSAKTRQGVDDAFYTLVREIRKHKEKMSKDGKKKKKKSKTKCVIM
Sequence of KRAS G12D (P62937 whole entry): as the sequence (P62937 whole entry) above
Procedure: as §1, §2, §3, §4, §5

KRAS G12S = KRAS G12S (Homo sapiens (Human), UniProt P01116+P62937, G12S); assay: as above; type: biochemical
Sequence of KRAS G12S (P01116 other isoform, or with tags, fused parts or gaps G12S): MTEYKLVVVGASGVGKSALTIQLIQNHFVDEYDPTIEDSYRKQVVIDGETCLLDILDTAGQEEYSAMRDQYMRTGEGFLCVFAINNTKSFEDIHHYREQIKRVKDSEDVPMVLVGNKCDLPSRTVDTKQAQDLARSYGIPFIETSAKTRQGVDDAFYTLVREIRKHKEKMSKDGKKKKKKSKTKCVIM
Sequence of KRAS G12S (P62937 whole entry): as the sequence (P62937 whole entry) above
Procedure: as §1, §2, §3, §4, §5

KRAS G12V = KRAS G12V (Homo sapiens (Human), UniProt P01116+P62937, G12V); assay: as above; type: biochemical
Sequence of KRAS G12V (P01116 other isoform, or with tags, fused parts or gaps G12V): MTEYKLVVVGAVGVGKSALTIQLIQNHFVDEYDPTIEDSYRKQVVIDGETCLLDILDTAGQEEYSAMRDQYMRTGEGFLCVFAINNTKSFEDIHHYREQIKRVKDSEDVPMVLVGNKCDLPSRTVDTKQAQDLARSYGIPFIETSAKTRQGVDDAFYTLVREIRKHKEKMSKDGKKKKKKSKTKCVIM
Sequence of KRAS G12V (P62937 whole entry): as the sequence (P62937 whole entry) above
Procedure: as §1, §2, §3, §4, §5

KRAS G13C = KRAS G13C (Homo sapiens (Human), UniProt P01116+P62937, G13C); assay: as above; type: biochemical
Sequence of KRAS G13C (P01116 other isoform, or with tags, fused parts or gaps G13C): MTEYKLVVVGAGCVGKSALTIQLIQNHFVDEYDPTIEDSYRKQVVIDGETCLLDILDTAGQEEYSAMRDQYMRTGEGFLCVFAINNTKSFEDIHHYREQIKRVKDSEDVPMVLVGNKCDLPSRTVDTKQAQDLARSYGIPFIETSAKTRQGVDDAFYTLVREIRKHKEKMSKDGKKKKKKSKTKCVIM
Sequence of KRAS G13C (P62937 whole entry): as the sequence (P62937 whole entry) above
Procedure: as §1, §2, §3, §4, §5

KRAS G13D = KRAS G13D (Homo sapiens (Human), UniProt P01116+P62937, G13D); assay: as above; type: biochemical
Sequence of KRAS G13D (P01116 other isoform, or with tags, fused parts or gaps G13D): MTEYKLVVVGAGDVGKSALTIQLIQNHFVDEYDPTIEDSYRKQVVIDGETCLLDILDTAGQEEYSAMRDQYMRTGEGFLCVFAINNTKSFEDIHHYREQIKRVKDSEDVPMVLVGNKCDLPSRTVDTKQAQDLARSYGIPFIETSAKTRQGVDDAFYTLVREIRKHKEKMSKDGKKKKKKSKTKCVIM
Sequence of KRAS G13D (P62937 whole entry): as the sequence (P62937 whole entry) above
Procedure: as §1, §2, §3, §4, §5

KRAS WT = KRAS WT (Homo sapiens (Human), UniProt P01116+P62937); assay: as above; type: biochemical
Sequence of KRAS WT (P01116 other isoform, or with tags, fused parts or gaps): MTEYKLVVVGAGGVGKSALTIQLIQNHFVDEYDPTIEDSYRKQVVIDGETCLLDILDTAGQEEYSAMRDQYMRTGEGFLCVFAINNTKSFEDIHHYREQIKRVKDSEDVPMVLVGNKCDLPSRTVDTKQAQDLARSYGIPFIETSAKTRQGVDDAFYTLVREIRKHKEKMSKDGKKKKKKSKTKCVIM
Sequence of KRAS WT (P62937 whole entry): as the sequence (P62937 whole entry) above
Procedure: as §1, §2, §3, §4, §5

NRAS G12C = NRAS G12C (Homo sapiens (Human), UniProt P01111+P62937, G12C); assay: as above; type: biochemical
Sequence of NRAS G12C (P01111 whole entry G12C): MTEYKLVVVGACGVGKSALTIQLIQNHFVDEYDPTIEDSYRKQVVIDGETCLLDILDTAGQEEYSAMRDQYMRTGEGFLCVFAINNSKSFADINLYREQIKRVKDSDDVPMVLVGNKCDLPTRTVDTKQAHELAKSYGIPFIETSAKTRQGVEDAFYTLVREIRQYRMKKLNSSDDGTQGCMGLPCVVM
Sequence of NRAS G12C (P62937 whole entry): as the sequence (P62937 whole entry) above
Procedure: as §1, §2, §3, §4, §5

[2] = tested on: K-Ras G12C (NCI-H358 cells); assay: Potency assay: pERK in NCI-H358 cells; type: cell-based, human; details: Homo sapiens; NCI-H358 cells, 4 hours; read-out: pERK EC50 (H358 KRAS G12C)
Procedure, shortened: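 Cells plated the day before were exposed for 4 h at 37° C, 5% CO2 to a 10-point, 3-fold DMSO dilution series (10 mM top stock), in duplicate. Phospho-ERK was read by AlphaLISA SureFire Ultra or by In-Cell Western with DRAQ5 DNA stain, and IC50 came from a 4-parameter sigmoidal fit.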

[3] = read-out: KRAS G13D FRET data IC50
[4] = read-out: KRAS WT FRET data IC50
[5] = read-out: NRAS G12C FRET data IC50

Row | Compound | IC50 ([1]; K-Ras G12V, 5-day treatment) | IC50 (KRAS G12C; read-out: KRAS G12C FRET IC50) | IC50 (KRAS G12D; read-out: KRAS G12D FRET IC50) | IC50 (KRAS G12S; read-out: KRAS G12S FRET IC50) | IC50 (KRAS G12V; read-out: KRAS G12V FRET IC50) | IC50 (KRAS G13C; read-out: KRAS G13C FRET IC50) | IC50 (KRAS G13D; [3]) | IC50 (KRAS WT; [4]) | IC50 (NRAS G12C; [5]) | EC50 [2] | IC50 [1] | IC50 (KRAS G12D; KRAS G12D FRET IC50) | IC50 (KRAS G12S; KRAS G12S FRET IC50) | IC50 (KRAS G12V; KRAS G12V FRET IC50) | IC50 (KRAS G13C; KRAS G13C FRET IC50) | IC50 (KRAS G13D; KRAS G13D FRET data IC50) | IC50 (KRAS WT; KRAS WT FRET data IC50) | IC50 (NRAS G12C; NRAS G12C FRET data IC50) | IC50 (KRAS G12C; KRAS G12C FRET IC50)
1 | CCn1c(-c2cnccc2COC)c2c3cc(ccc31)-c1cc(O)cc(c1)C[C@H](NC(=O)[C@H](C(C)C)N(C)C(=O)[C@@H]1CNC[C@@H]1C(F)(F)F)C(=O)N1CCC[C@H](N1)C(=O)OCC(C)(C)C2 [Compound A79] | > 10 µM | 0.1 to 1 µM | 0.1 to 1 µM | 0.1 to 1 µM | 1 to 10 µM | 0.1 to 1 µM | 0.1 to 1 µM | 0.1 to 1 µM | 0.1 to 1 µM | – | – | – | – | – | – | – | – | – | –
2 | CCn1c(-c2cccnc2[C@H](C)OC)c2c3cc(ccc31)-c1csc(n1)C[C@H](NC(=O)[C@H](C(C)C)N(C)C(=O)[C@H]1CCN(CCO)C1)C(=O)N1CCC[C@H](N1)C(=O)OCC(C)(C)C2 [Compound A110] | > 10 µM | 1 to 10 µM | 1 to 10 µM | 1 to 10 µM | > 10 µM | 1 to 10 µM | 1 to 10 µM | 1 to 10 µM | 1 to 10 µM | – | – | – | – | – | – | – | – | – | –
3 | CCn1c(-c2cccnc2[C@H](C)OC)c2c3cc(ccc31)-c1cc(O)cc(c1)C[C@H](NC(=O)[C@H](C(C)C)N(C)C(=O)C1CC13CNC3)C(=O)N1CCC[C@H](N1)C(=O)OCC(C)(C)C2 (stereo partly shown) [Compound A140] | > 10 µM | 0.01 to 0.1 µM | 0.01 to 0.1 µM | 0.01 to 0.1 µM | 0.01 to 0.1 µM | 0.01 to 0.1 µM | 0.01 to 0.1 µM | 0.01 to 0.1 µM | 0.01 to 0.1 µM | – | – | – | – | – | – | – | – | – | –
4 | CCn1c(-c2cccnc2[C@H](C)OC)c2c3cc(ccc31)-c1cc(O)cc(c1)C[C@H](NC(=O)[C@H](C(C)C)N(C)C(=O)[C@@H]1C[C@@H]1F)C(=O)N1CCC[C@H](N1)C(=O)OCC(C)(C)C2 [Compound A160] | 0.1 to 1 µM | 0.01 to 0.1 µM | 0.1 to 1 µM | 0.1 to 1 µM | – | 0.01 to 0.1 µM | 0.1 to 1 µM | 0.01 to 0.1 µM | 0.01 to 0.1 µM | – | – | – | – | – | – | – | – | – | –
5 | CCn1c(-c2cccnc2[C@H](C)OC)c2c3cc(ccc31)-c1cc(O)cc(c1)C[C@H](NC(=O)[C@H](C(C)C)N(C)C(=O)[C@H]1C[C@H]1F)C(=O)N1CCC[C@H](N1)C(=O)OCC(C)(C)C2 [Compound A162] | – | 0.01 to 0.1 µM | 0.1 to 1 µM | 0.01 to 0.1 µM | – | 0.01 to 0.1 µM | 0.01 to 0.1 µM | 0.01 to 0.1 µM | 0.01 to 0.1 µM | < 5 µM | – | – | – | – | – | – | – | – | –
6 | CCn1c(-c2cccnc2[C@H](C)OC)c2c3cc(ccc31)-c1cc(O)cc(c1)C[C@H](NC(=O)C(C)Cc1ccncc1)C(=O)N1CCC[C@H](N1)C(=O)OCC(C)(C)C2 (stereo partly shown) [Compound A179] | – | 0.1 to 1 µM | 1 to 10 µM | 1 to 10 µM | 1 to 10 µM | 0.1 to 1 µM | 0.1 to 1 µM and 1 to 10 µM | 0.1 to 1 µM | 1 to 10 µM | < 5 µM | – | – | – | – | – | – | – | – | –
7 | CCn1c(-c2cccnc2[C@H](C)OC)c2c3cc(ccc31)-c1cc(O)cc(c1)C[C@H](NC(=O)C13CCCC1C3(F)F)C(=O)N1CCC[C@H](N1)C(=O)OCC(C)(C)C2 (stereo partly shown) [Compound A180] | 1 to 10 µM | 1 to 10 µM | > 10 µM | 1 to 10 µM | 1 to 10 µM | 0.1 to 1 µM | 1 to 10 µM | 1 to 10 µM | 1 to 10 µM | – | – | – | – | – | – | – | – | – | –
8 | CCn1c(-c2cccnc2[C@H](C)OC)c2c3cc(ccc31)-c1cc(O)cc(c1)C[C@H](NS(=O)(=O)c1ccc(OC)cc1OC)C(=O)N1CCC[C@H](N1)C(=O)OCC(C)(C)C2 [Compound A198] | – | – | – | – | – | – | – | – | – | – | > 10 µM | > 10 µM | > 10 µM | > 10 µM | > 10 µM | > 10 µM | > 10 µM | > 10 µM | –
9 | CCn1c(-c2cccnc2[C@H](C)OC)c2c3cc(ccc31)-c1cc(O)cc(c1)C[C@H](NC(=O)N1CCOCC1)C(=O)N1CCC[C@H](N1)C(=O)OCC(C)(C)C2 [Compound A199] | – | – | – | – | – | – | – | – | – | – | > 10 µM | > 10 µM | > 10 µM | – | 1 to 10 µM | 1 to 10 µM | 1 to 10 µM | 1 to 10 µM | 1 to 10 µM
10 | CCn1c(-c2cnccc2COC)c2c3cc(ccc31)-c1cc(O)cc(c1)C[C@H](NC(=O)[C@H](C(C)C)N(C)C(=O)N1CCOCC1)C(=O)N1CCC[C@H](N1)C(=O)OCC(C)(C)C2 [Compound A257] | – | 0.1 to 1 µM | 1 to 10 µM | 0.1 to 1 µM | 0.1 to 1 µM | 0.1 to 1 µM | 0.1 to 1 µM | 0.1 to 1 µM | 0.1 to 1 µM | < 5 µM | – | – | – | – | – | – | – | – | –
11 | CCn1c(-c2cccnc2[C@H](C)OC)c2c3cc(ccc31)-c1cccc(c1)C[C@H](NC(=O)[C@H](C(C)C)N(C)C(=O)[C@H]1OCC[C@H]1c1ccccc1)C(=O)N1CCC[C@H](N1)C(=O)OCC(C)(C)C2 [Compound A429] | – | 1 to 10 µM | > 10 µM | > 10 µM | > 10 µM | > 10 µM | > 10 µM | 1 to 10 µM | 1 to 10 µM | – | – | – | – | – | – | – | – | – | –
